# Assay results published in patent US20050208147A1, “Isolation of bivittoside D from sea cucumber and activity thereof” (Council of Scientific and Industrial Research, priority 2004, published 2005).
# What was measured:
# human spermatozoa = assay: Spermicidal activity in vitro, Sander Cramer assay; assay type: cell-based
# Protocol: The spermicidal activity was determined by the Sander Cramer assay (Sander, F. V., Cramer, S. D., Human Fertility, (1941) Vol. 6, p-134) using physiological saline (0.85% NaCl). Aqueous solutions (1.0% i.e. 10 mg/ml) of different fractions of B. vitiensis were prepared in physiological saline, which were diluted further up to a concentration of 0.01%. Human semen (0.2 ml) was mixed with each test solution (1.0 ml) separately and vortexed for 10 s. A wet mount of each preparation was immediately examined under a phase contrast microscope. The lowest spermicidal concentration that completely immobilized 100% of the spermatozoa within 20 s. was referred to as MEC (minimum effective concentration). The activity was confirmed in three different semen samples with >50×10^6/ml sperm count and >50% motility.
# Candida albicans = assay: In vitro antifungal MIC, broth micro-dilution (NCCLS M-27A); assay type: cell-based
# Protocol: (§1) Extracts/fractions/pure compounds obtained from B. vitiensis were tested in in-vitro antifungal activity against five pathogenic fungi in terms of minimum inhibitory concentration (mic,mg/ml) following reference methods. Mics for yeasts: Candida albicans (ca), Cryptococcus neoformans (cn) and Sporothrix schenckii (spo) were determined by broth micro-dilution method according to guide lines of nccls documents m-27a1 (National Committee for Clinical Standards (1997) reference method for broth dilution. Antifungal susceptibility testing of yeast approved standards document m-27a, nccls, wayne, Pa.) In RPMI-1640 medium buffered at pH 7.0 with 0.165 m morpholine propane sulphonic acid (mops: Sigma USA moris; Mo.). Assays were performed in flat bottomed 96 wells microlitre plate. Stock solution of products were prepared in DMSO and diluted by two-fold serial dilution. The working suspension (0.5×103 to 2.5×103) of the innoculum, prepared spectrophotometrically (0.5 mc Farland turbidity standard) was made by a 1:50 dilution followed by a 1:20 dilution of the seeded broth in RPMI-1640. Suitable controls were maintained simultaneously. Plates were incubated at 35° C. and observed visually at 24 hr for ca and 48 hr cn and spo. The susceptibilities of molds Aspergillus fumigatus (af) and Frichophyton mentagrophytes (tm) were determined by the NCCLS proposed document m-38p2 (National Committee for Clinical laboratory Standards (1997) reference method for broth dilution antifungal susceptibility testing of Aspergillus, proposed standards document m-38 p, nccls, wayne, Pa.). In brief, cultures were grown on sabouraud dextrose agar at 35° C. until sporulation occurred. Spores were suspended in 0.85% normal saline and diluted in RPMI-1640 to yield 104 cf p/ml.
# Cryptococcus neoformans = assay: as above; assay type: cell-based
# Protocol: as §1
# Sporothrix schenckii = assay: as above; assay type: cell-based
# Protocol: as §1
# [1] = test system: trichophyton mentagrophytes; assay: In vitro antifungal MIC for molds (NCCLS M-38P); assay type: cell-based
# Protocol: as §1, with “The working suspension (0.5×103 to 2.5×103) of the innoculum, prepared spectrophotometrically (0.5 mc Farland turbidity standard) was made by a 1:50 dilution followed by a 1:20 dilution of the seeded broth in RPMI-1640. Suitable controls were maintained simultaneously. Plates were incubated at 35° C. and observed visually at 24 hr for ca and 48 hr cn and spo.” left out, “In brief, cultures were grown on sabouraud dextrose agar at 35° C. until sporulation occurred. Spores were suspended in 0.85% normal saline and diluted in RPMI-1640 to yield 104 cf p/ml.” left out
# Aspergillus fumigatus = assay: In vitro antifungal MIC for molds (NCCLS M-38P); assay type: cell-based; set-up: mic against af: unit not given here
# Protocol: as §1, with “The working suspension (0.5×103 to 2.5×103) of the innoculum, prepared spectrophotometrically (0.5 mc Farland turbidity standard) was made by a 1:50 dilution followed by a 1:20 dilution of the seeded broth in RPMI-1640. Suitable controls were maintained simultaneously. Plates were incubated at 35° C. and observed visually at 24 hr for ca and 48 hr cn and spo.” left out, “In brief, cultures were grown on sabouraud dextrose agar at 35° C. until sporulation occurred. Spores were suspended in 0.85% normal saline and diluted in RPMI-1640 to yield 104 cf p/ml.” left out
# [2] = test system: Aspergillus niger, A. oryzae, Penicillium citrinum, P. chrysogenum, Mucor spinescens, Cladosporium herbarium, Rhodotorula rubra, Trichophyton mentagrophytes, T.; settings: panel of eleven fungi; literature report; cited from earlier work
# [3] = read at 48 hr, tested at 1000-1.95 mg/ml
substance,measurement,setting,value
Bivittoside-D [K007],spermicidal activity (in words),human spermatozoa; in vitro model,promising spermicidal
same,Mec (minimum effective concentration),human spermatozoa; lowest concentration that completely immobilized 100% of human spermatozoa within 20 s,0.05%
same,mic against ca,Candida albicans,3.12 µg/mL
same,"Mics against pathogenic fungi, ca","Candida albicans; read at 24 hr, tested at 1000-1.95 mg/ml",3.12 μg/mi.
same,mic against cn,Cryptococcus neoformans,6.25 mg/mL
same,"Mics against pathogenic fungi, Cn",Cryptococcus neoformans; [3],6.25 μg/mi.
same,mic against spo,Sporothrix schenckii,6.25 mg/mL
same,"Mics against pathogenic fungi, spo",Sporothrix schenckii; [3],1.56 μg/mi.
same,mic against tm,[1],1.56 mg/mL
same,"Mics against pathogenic fungi, tm",[1]; tested at 1000-1.95 mg/ml,1.56 μg/mi.
same,mic against af,Aspergillus fumigatus; Aspergillus fumigatus,12.57
same,"Mics against pathogenic fungi, Af","Aspergillus fumigatus; aspergillus fumigates, tested at 1000-1.95 mg/ml",12.5 μg/mi.
same,antifungal activities (in words),[2],significant antifungal activities
